Measured values reported in paper PMC9403976, “Elucidating the path to Plasmodium prolyl-tRNA synthetase inhibitors that overcome halofuginone resistance” (Nature Communications, 2022).
Several values for one entry are separate records, joined by “and”; a condition that tells them apart may be missing. Identical values can stand only once.

Biological target: HsProRS (Homo sapiens, UniProt P07814)
Experiment: TR-FRET ligand displacement assay with tracer MAT379 (CoraFluor-1-Halo and anti-His6 antibody formats)
Assay type: binding
Set-up: made in house; host or cells: E. coli SoluBL-21
Conditions: for normalized TR-FRET ligand displacement signal, dose-response replicates (SI Fig 6) / TR-FRET dose-response, normalized signal (SI Fig 11) / normalized TR-FRET signal (dose-response replicates): listed as NCP26 (3); for TR-FRET dose-response, normalized signal (SI Fig 11): individual replicates; for normalized TR-FRET signal (dose-response replicates): SI Fig 15

HsProRS, sequence (P07814 996-1512): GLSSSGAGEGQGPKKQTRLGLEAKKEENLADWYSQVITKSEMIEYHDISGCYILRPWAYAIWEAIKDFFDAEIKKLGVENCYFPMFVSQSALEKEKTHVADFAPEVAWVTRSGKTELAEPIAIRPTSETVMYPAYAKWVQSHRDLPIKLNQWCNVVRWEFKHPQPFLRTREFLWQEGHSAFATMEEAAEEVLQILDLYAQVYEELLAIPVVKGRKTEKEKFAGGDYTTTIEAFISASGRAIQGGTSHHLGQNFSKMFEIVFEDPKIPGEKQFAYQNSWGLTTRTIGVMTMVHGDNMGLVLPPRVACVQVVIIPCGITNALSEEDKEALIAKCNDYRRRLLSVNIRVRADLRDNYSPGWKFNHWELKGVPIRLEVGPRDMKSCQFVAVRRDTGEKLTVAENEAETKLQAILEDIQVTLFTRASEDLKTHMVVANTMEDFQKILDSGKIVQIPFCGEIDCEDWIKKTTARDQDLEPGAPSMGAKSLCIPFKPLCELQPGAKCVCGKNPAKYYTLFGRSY

For `O=C(NC1Cc2ccccc2C1)c1nccnc1NC(=O)N1CCCCC1` [NCP26], the “normalized TR-FRET ligand displacement signal, dose-response replicates (SI Fig 6)” value (Log[inhibitor] (M) -5.601) was 1.19E-01 and 1.01E-01, the “normalized TR-FRET ligand displacement signal, dose-response replicates (SI Fig 6)” value (Log[inhibitor] (M) -5.902) was 2.03E-01 and 2.10E-01 and the “TR-FRET dose-response, normalized signal (SI Fig 11)” value (Log[inhibitor] (M) -5.904) was 2.33E-01 and 2.21E-01 and 2.09E-01. The “normalized TR-FRET ligand displacement signal, dose-response replicates (SI Fig 6)” value (Log[inhibitor] (M) -6.203) was 4.13E-01 and 3.59E-01, the “TR-FRET dose-response, normalized signal (SI Fig 11)” value (Log[inhibitor] (M) -6.208) was 3.61E-01 and 2.97E-01 and 3.35E-01 and the “TR-FRET dose-response, normalized signal (SI Fig 11)” value (Log[inhibitor] (M) -6.509) was 4.65E-01 and 4.29E-01 and 4.89E-01. The “normalized TR-FRET ligand displacement signal, dose-response replicates (SI Fig 6)” value (Log[inhibitor] (M) -6.513) was 6.17E-01 and 6.51E-01, the “TR-FRET dose-response, normalized signal (SI Fig 11)” value (Log[inhibitor] (M) -6.796) was 6.56E-01 and 6.91E-01 and 6.47E-01 and the “normalized TR-FRET ligand displacement signal, dose-response replicates (SI Fig 6)” value (Log[inhibitor] (M) -6.796) was 7.87E-01 and 8.56E-01. The “TR-FRET dose-response, normalized signal (SI Fig 11)” value (Log[inhibitor] (M) -7.108) was 8.29E-01 and 7.76E-01 and 7.86E-01, the “normalized TR-FRET ligand displacement signal, dose-response replicates (SI Fig 6)” value (Log[inhibitor] (M) -7.108) was 8.95E-01 and 9.07E-01 and the “normalized TR-FRET ligand displacement signal, dose-response replicates (SI Fig 6)” value (Log[inhibitor] (M) -7.405) was 9.57E-01 and 8.55E-01. For the same compound, the “TR-FRET dose-response, normalized signal (SI Fig 11)” value (Log[inhibitor] (M) -7.409) was 9.33E-01 and 8.84E-01 and 8.96E-01, the “TR-FRET dose-response, normalized signal (SI Fig 11)” value (Log[inhibitor] (M) -7.710) was 1.01E+00 and 8.77E-01 and 8.78E-01 and the “normalized TR-FRET ligand displacement signal, dose-response replicates (SI Fig 6)” value (Log[inhibitor] (M) -7.714) was 1.05E+00 and 9.22E-01. The “TR-FRET dose-response, normalized signal (SI Fig 11)” value (Log[inhibitor] (M) -8.000) was 9.74E-01 and 9.83E-01 and 9.34E-01, the “normalized TR-FRET ligand displacement signal, dose-response replicates (SI Fig 6)” value (Log[inhibitor] (M) -8.000) was 1.02E+00 and 1.00E+00 and the “normalized TR-FRET signal (Fig 2j)” value (Log[inhibitor] (M) -8.013) was 3.80E-01 and 4.41E-01 and 3.90E-01. The “TR-FRET dose-response, normalized signal (SI Fig 11)” value (Log[inhibitor] (M) -8.301) was 1.04E+00 and 9.70E-01 and 9.69E-01, the “normalized TR-FRET signal (Fig 2j)” value (Log[inhibitor] (M) -8.314) was 5.85E-01 and 7.34E-01 and 6.18E-01 and the “normalized TR-FRET ligand displacement signal, dose-response replicates (SI Fig 6)” value (Log[inhibitor] (M) -8.331) was 1.04E+00 and 1.00E+00. For the same compound, the “normalized TR-FRET ligand displacement signal, dose-response replicates (SI Fig 6)” value (Log[inhibitor] (M) -8.574) was 1.00E+00 and 9.98E-01, the “TR-FRET dose-response, normalized signal (SI Fig 11)” value (Log[inhibitor] (M) -8.602) was 1.02E+00 and 9.93E-01 and 9.50E-01 and the “normalized TR-FRET signal (Fig 2j)” value (Log[inhibitor] (M) -8.615) was 7.72E-01 and 8.28E-01 and 8.16E-01. For the same compound, the “normalized TR-FRET signal (Fig 2j)” value (Log[inhibitor] (M) -8.916) was 9.01E-01 and 9.63E-01 and 9.82E-01, the “TR-FRET dose-response, normalized signal (SI Fig 11)” value (Log[inhibitor] (M) -9.000) was 9.79E-01 and 9.82E-01 and 1.02E+00 and the “normalized TR-FRET signal (Fig 2j)” value (Log[inhibitor] (M) -9.217) was 9.20E-01 and 1.06E+00. The “TR-FRET dose-response, normalized signal (SI Fig 11)” value (Log[inhibitor] (M) -9.301) was 1.04E+00 and 1.00E+00 and 9.65E-01, the “normalized TR-FRET signal (dose-response replicates)” value (Log[inhibitor] (M) -4.99976) was 2.27E-01 and 3.58E-01 and 2.56E-01 and the “normalized TR-FRET signal (dose-response replicates)” value (Log[inhibitor] (M) -5.3009) was 5.51E-01 and 1.03E-01 and 3.27E-01. For the same compound, the “normalized TR-FRET signal (dose-response replicates)” value (Log[inhibitor] (M) -5.60199) was 6.05E-01 and 4.05E-01 and 4.39E-01, the “normalized TR-FRET signal (dose-response replicates)” value (Log[inhibitor] (M) -5.90248) was 4.42E-01 and 6.91E-01 and 6.09E-01 and the “normalized TR-FRET signal (dose-response replicates)” value (Log[inhibitor] (M) -6.20323) was 4.30E-01 and 8.03E-01 and 7.35E-01. The “normalized TR-FRET signal (dose-response replicates)” value (Log[inhibitor] (M) -6.51347) was 8.28E-01 and 6.81E-01 and 6.14E-01, the “normalized TR-FRET signal (dose-response replicates)” value (Log[inhibitor] (M) -6.79595) was 1.04E+00 and 6.14E-01 and 1.23E+00 and the “normalized TR-FRET signal (dose-response replicates)” value (Log[inhibitor] (M) -7.10794) was 8.29E-01 and 9.88E-01 and 1.04E+00. The “normalized TR-FRET signal (dose-response replicates)” value (Log[inhibitor] (M) -7.40526) was 1.19E+00 and 8.56E-01 and 7.59E-01, the “normalized TR-FRET signal (dose-response replicates)” value (Log[inhibitor] (M) -7.7137) was 9.63E-01 and 9.49E-01 and 1.37E+00 and the “normalized TR-FRET signal (dose-response replicates)” value (Log[inhibitor] (M) -8) was 8.45E-01 and 9.90E-01 and 8.83E-01. The “normalized TR-FRET signal (dose-response replicates)” value (Log[inhibitor] (M) -8.331) was 9.93E-01 and 9.01E-01 and 8.86E-01, the “normalized TR-FRET signal (dose-response replicates)” value (Log[inhibitor] (M) -8.57403) was 9.84E-01 and 9.89E-01 and 1.13E+00 and the “normalized TR-FRET signal (dose-response replicates)” value (Log[inhibitor] (M) -8.87506) was 9.25E-01 and 9.80E-01 and 7.66E-01. For the same compound, the “normalized TR-FRET signal (dose-response replicates)” value (Log[inhibitor] (M) -9.17609) was 7.05E-01 and 1.05E+00 and 1.13E+00.
